Consider 20 compounds from PubChem BioAssay AID328 (DTP/NCI, 2004).

This assay has as its system BDF1 mice, P388 leukemia ip, median survival T/C. As to the kind of experiment: NCI In Vivo Anticancer Drug Screen. Data for tumor model P388 Leukemia (intraperitoneal) in B6D2F1 (BDF1) mice. To be noted: endpoint: median survival time, higher = longer survival. Here is the method:
The antitumor activity of compounds was measured in mice bearing transplantable tumors. Survival or tumor size were measured and the results are expressed as the measurement made in the treated group (T) divided by the measurement made in the vehicle treated control group (C). The tumor model used in this assay is P388 Leukemia (intraperitoneal) in B6D2F1 (BDF1) mice

[1] abbreviates: dose: 50.0 mg/kg/injection, schedule: Q04DX003 (ip), vehicle: saline with Tween-80.
Setting [2] is: dose: 100.0 mg/kg/injection, schedule: Q04DX003 (ip), vehicle: saline with Tween-80.
The mark [3] stands for this setting: dose: 200.0 mg/kg/injection, schedule: Q04DX003 (ip), vehicle: saline with Tween-80.
Where [4] appears, read: dose: 50.0 mg/kg/injection, schedule: Q01DX009 (ip), vehicle: saline with Tween-80.
The mark [5] stands for this setting: dose: 100.0 mg/kg/injection, schedule: Q01DX009 (ip), vehicle: saline with Tween-80.
The mark [6] stands for this setting: dose: 6.25 mg/kg/injection, schedule: Q01DX009 (ip), vehicle: saline.
Setting [7] is: dose: 12.5 mg/kg/injection, schedule: Q01DX009 (ip), vehicle: saline.
Setting [8] is: dose: 25.0 mg/kg/injection, schedule: Q01DX009 (ip), vehicle: saline.
Where [9] appears, read: dose: 50.0 mg/kg/injection, schedule: Q01DX009 (ip), vehicle: saline.
Setting [10] is: dose: 200.0 mg/kg/injection, schedule: Q01DX009 (ip), vehicle: saline with Tween-80.
[11] abbreviates: dose: 6.25 mg/kg/injection, schedule: Q04DX003 (ip), vehicle: saline.
[12] abbreviates: dose: 50.0 mg/kg/injection, schedule: Q04DX003 (ip), vehicle: saline.
Where [13] appears, read: dose: 25.0 mg/kg/injection, schedule: Q01DX009 (ip), vehicle: Klucel (hydroxypropylcellulose) (HPC).
Where [14] appears, read: dose: 50.0 mg/kg/injection, schedule: Q01DX009 (ip), vehicle: Klucel (hydroxypropylcellulose) (HPC).
[15] abbreviates: dose: 100.0 mg/kg/injection, schedule: Q01DX009 (ip), vehicle: Klucel (hydroxypropylcellulose) (HPC).

Values joined by “and” are separate entries in the source; they are usually repeats but may differ in a detail not shown here. Identical values can stand only once. Inconclusive results and toxic doses are left out.

`CNc1nc(N)c(N=O)c(Nc2ccc(Br)cc2)n1`: the T/C runs as follows: (dose: 62.5 mg/kg/injection, schedule: Q01DX010 (ip), vehicle: carboxymethylcellulose (CMC)) 105 % of control; (dose: 125.0 mg/kg/injection, schedule: Q01DX010 (ip), vehicle: carboxymethylcellulose (CMC)) 110 % of control; (dose: 250.0 mg/kg/injection, schedule: Q01DX010 (ip), vehicle: carboxymethylcellulose (CMC)) 100 % of control; (dose: 500.0 mg/kg/injection, schedule: Q01DX010 (ip), vehicle: carboxymethylcellulose (CMC)) 100 % of control.
Take `O=C1c2ccccc2C(=O)N1CN1C(=O)c2ccccc2C1=O`: the T/C reads like this: under setting [1], 95 % of control; under setting [2], 90 % of control; under setting [3], 86 % of control.
On to `O=[N+]([O-])c1ccc(N2CCCC(n3cccc3)C2)c([N+](=O)[O-])c1` (configuration not stated), for which the T/C by setting is: under setting [4], 109 % of control; under setting [5], 115 % of control.
With `COc1ncnc2c1c(C#N)cn2C1OC(CO)C(O)C1O` (configuration not stated), the T/C by setting is: under setting [6], 102 % of control; under setting [7], 102 % of control; under setting [8], 102 % of control; under setting [9], 95 % of control.
As to `Cc1nc2ccccc2c(=O)n1C(C)(C)CCl`, the T/C by setting is: under setting [2], 100 % of control; under setting [3], 109 % of control.
Take `CCN(CC)CCCC(C)Nc1ccnc2cc(Cl)ccc12` (configuration not stated): the T/C was 100 % of control (dose: 6.2 mg/kg/injection, schedule: Q01DX010 (ip), vehicle: saline); 113 % of control under setting [7]; 90 % of control (dose: 12.5 mg/kg/injection, schedule: Q01DX010 (ip), vehicle: saline); 109 % of control under setting [8]; 95 % of control (dose: 25.0 mg/kg/injection, schedule: Q01DX010 (ip), vehicle: saline); 109 % of control under setting [9]. The T/C (dose: 50.0 mg/kg/injection, schedule: Q01DX010 (ip), vehicle: saline) was 100 % of control and the T/C (dose: 75.0 mg/kg/injection, schedule: Q01DX009 (ip), vehicle: saline) was 104 % of control.
Turning to `CCn1c2ccccc2c2cc(NC(=O)N(CCCl)N=O)ccc21`, the T/C reads like this: (dose: 100.0 mg/kg/injection, schedule: Q01DX009 (ip), vehicle: saline sonified) 170 % of control; (dose: 200.0 mg/kg/injection, schedule: Q01DX009 (ip), vehicle: saline sonified) 150 % of control; (dose: 400.0 mg/kg/injection, schedule: Q01DX009 (ip), vehicle: saline sonified) 185 % of control.
`Cc1cc(C(=O)N/N=C/c2ccccc2O)c2cc(Br)ccc2n1`: the T/C was 95 % of control (dose: 0.78 mg/kg/injection, schedule: Q01DX009 (ip), vehicle: saline with Tween-80); 95 % of control (dose: 1.56 mg/kg/injection, schedule: Q01DX009 (ip), vehicle: saline with Tween-80); 97 % of control (dose: 3.12 mg/kg/injection, schedule: Q01DX009 (ip), vehicle: saline with Tween-80).
For `CCCCCCNC(=S)/N=C(\N)n1nc(C)cc1C`, the T/C reads like this: under setting [4], 109 % of control; under setting [5], 99 % of control; under setting [10], 112 % of control.
In the same order, the values of `C(=C/c1nnc2ncccn12)/c1ccccc1` are 97 % of control, 94 % of control and 110 % of control.
On to `O=C(O)C(=O)O.O=C([O-])C(=O)O.O=C([O-])C(=O)O.O=C([O-])C(=O)[O-].[K+].[U]`, for which the T/C (dose: 1.02 mg/kg/injection, schedule: Q01DX009 (ip), vehicle: saline) was 90 % of control; the T/C (dose: 1.56 mg/kg/injection, schedule: Q01DX009 (ip), vehicle: saline) was 91 % of control; the T/C (dose: 2.34 mg/kg/injection, schedule: Q01DX009 (ip), vehicle: saline) is 95 % of control; the T/C under setting [6] is 95 % of control; the T/C under setting [11] is 90 % of control; the T/C under setting [7] was 100 % of control. Further, the T/C under setting [12] is 86 % of control.
In the case of `[Se]c1ccnc([Se])n1`, the T/C is, setting by setting: under setting [1], 100 % of control; under setting [2], 90 % of control; under setting [3], 100 % of control.
Turning to `COc1cc(NCCN2CCN(CCNc3cc(OC)cc4cccnc34)CC2)c2ncccc2c1`, the T/C under setting [4] was 113 % of control, the T/C under setting [5] was 110 % of control and the T/C under setting [10] is 94 % of control.
Take `COc1ccc(/C=C2\C(=O)C(c3ccccc3)N(c3ccccc3)C2=O)cc1` (configuration not stated): the T/C (dose: 400.0 mg/kg/injection, schedule: Q04DX002 (ip), vehicle: saline with Tween-80) was 88 % of control.
As for `CC1=CC23C(COC(=O)C24CO4)C(C(=O)O)=CC3C1C` (configuration not stated) (tested in a mixture with another compound), the T/C reads like this: (dose: 0.06 mg/kg/injection, schedule: Q01DX009 (ip), vehicle: Klucel (hydroxypropylcellulose) (HPC)) 105 % of control; (dose: 0.13 mg/kg/injection, schedule: Q01DX009 (ip), vehicle: Klucel (hydroxypropylcellulose) (HPC)) 100 % of control; (dose: 0.25 mg/kg/injection, schedule: Q01DX009 (ip), vehicle: Klucel (hydroxypropylcellulose) (HPC)) 105 % of control and 116 % of control.
`O=C1NC(=O)C2C3C(C(O)(c4ccccc4)c4ccccn4)=CC(/C3=C(\c3ccccc3)c3ccccn3)C12` (configuration not stated): the T/C (dose: 12.5 mg/kg/injection, schedule: Q01DX009 (ip), vehicle: Klucel (hydroxypropylcellulose) (HPC)) was 100 % of control; the T/C under setting [13] is 113 % of control; the T/C under setting [14] is 86 % of control; the T/C (dose: 100.0 mg/kg/injection, schedule: Q04DX003 (ip), vehicle: Klucel (hydroxypropylcellulose) (HPC)) is 109 % of control; the T/C (dose: 200.0 mg/kg/injection, schedule: Q04DX003 (ip), vehicle: Klucel (hydroxypropylcellulose) (HPC)) was 100 % of control; the T/C (dose: 400.0 mg/kg/injection, schedule: Q04DX003 (ip), vehicle: Klucel (hydroxypropylcellulose) (HPC)) is 100 % of control.
Consider `c1nc(SSc2ncnc3nc[nH]c23)c2[nH]cnc2n1`, for which the T/C is, setting by setting: (dose: 3.7 mg/kg/injection, schedule: Q04DX003 (ip), vehicle: saline) 87 % of control; (dose: 7.5 mg/kg/injection, schedule: Q04DX003 (ip), vehicle: saline) 91 % of control; (dose: 25.0 mg/kg/injection, schedule: Q04DX003 (ip), vehicle: saline with Tween-80) 100 % of control; under setting [12], 120 % of control; under setting [2], 111 % of control; (dose: 100.0 mg/kg/injection, schedule: Q04DX003 (ip), vehicle: saline) 87 % of control. For the same compound, the T/C (dose: 150.0 mg/kg/injection, schedule: Q04DX003 (ip), vehicle: saline) is 90 % of control; the T/C (dose: 225.0 mg/kg/injection, schedule: Q04DX003 (ip), vehicle: saline) is 90 % of control; the T/C (dose: 335.0 mg/kg/injection, schedule: Q04DX003 (ip), vehicle: saline) was 90 % of control.
Turning to `O=[N+]([O-])c1[nH]cnc1Br`, the T/C is 93 % of control under setting [13]; 96 % of control under setting [14]; 96 % of control under setting [15]; 86 % of control (dose: 200.0 mg/kg/injection, schedule: Q01DX009 (ip), vehicle: Klucel (hydroxypropylcellulose) (HPC)).
For the compound `CCCCCCCCCCCCCCCCCC[N+](C)(C)C`, the T/C (dose: 1.56 mg/kg/injection, schedule: Q04DX003 (ip), vehicle: saline) was 115 % of control; the T/C (dose: 3.12 mg/kg/injection, schedule: Q04DX003 (ip), vehicle: saline) was 115 % of control; the T/C (dose: 4.12 mg/kg/injection, schedule: Q01DX009 (ip), vehicle: saline) is 115 % of control; the T/C under setting [6] is 90 % of control; the T/C under setting [11] is 120 % of control; the T/C (dose: 9.2 mg/kg/injection, schedule: Q04DX003 (ip), vehicle: saline) was 104 % of control. The T/C is, setting by setting: (dose: 14.0 mg/kg/injection, schedule: Q04DX003 (ip), vehicle: saline) 100 % of control; (dose: 21.0 mg/kg/injection, schedule: Q04DX003 (ip), vehicle: saline) 90 % of control.
On to `C=CCOP(=O)(OCC=C)OCC=C`, for which the T/C is 100 % of control under setting [13], 104 % of control under setting [14] and 104 % of control under setting [15].
